Laboratory results: patent US7495027B2, “3-aryl-4-hydroxyfuranone compounds and the human and animal health use thereof” (Wyeth, priority 2003, dated 2009)
≈ marks a conversion by molar mass, not a printed value. Like-named read-outs stand apart in the source and are kept apart here.

Legend:
enterococci = assay: Minimum inhibitory concentration, microdilution broth method, enterococci; format: cell-based; conditions: Enterococcus faecalis, Mueller-Hinton broth, 18-22 hours at 35° C.
Description: (§1) Evaluation of the Minimum Inhibitory Concentration of Test Compounds Against A Variety of Bacterial Strains
(§2) In this evaluation the minimal inhibitory concentration (MIC) of test compounds against Gram positive and Gram negative bacteria is performed using the microdilution broth method as recommended by the National Committee for Clinical Laboratory Standards (Approved Standards M7-A5 2000). Mueller-Hinton broth is used for the enterobacteriaceae, staphylococci and enterococci. Streptococci are also tested in Mueller-Hinton broth supplemented with 5% horse blood (LHB). Test organisms include recent clinical isolates that are resistant to methicillin, penicillin and/or vancomycin. […].

staphylococci = assay: Minimum inhibitory concentration, microdilution broth method, staphylococci; format: cell-based; conditions: Staphylococcus aureus, Mueller-Hinton broth, 18-22 hours at 35° C.
Description: as §1, §2

[1] = molecular target: E. coli Uridine-diphosphate-N-acetvimuramoyl: L-alanine lipase, MurC (Escherichia coli, UniProt P17952); assay: Inhibitory activity against MurC (E. coli); format: biochemical
E. coli Uridine-diphosphate-N-acetvimuramoyl: L-alanine lipase, MurC, sequence (P17952 whole entry): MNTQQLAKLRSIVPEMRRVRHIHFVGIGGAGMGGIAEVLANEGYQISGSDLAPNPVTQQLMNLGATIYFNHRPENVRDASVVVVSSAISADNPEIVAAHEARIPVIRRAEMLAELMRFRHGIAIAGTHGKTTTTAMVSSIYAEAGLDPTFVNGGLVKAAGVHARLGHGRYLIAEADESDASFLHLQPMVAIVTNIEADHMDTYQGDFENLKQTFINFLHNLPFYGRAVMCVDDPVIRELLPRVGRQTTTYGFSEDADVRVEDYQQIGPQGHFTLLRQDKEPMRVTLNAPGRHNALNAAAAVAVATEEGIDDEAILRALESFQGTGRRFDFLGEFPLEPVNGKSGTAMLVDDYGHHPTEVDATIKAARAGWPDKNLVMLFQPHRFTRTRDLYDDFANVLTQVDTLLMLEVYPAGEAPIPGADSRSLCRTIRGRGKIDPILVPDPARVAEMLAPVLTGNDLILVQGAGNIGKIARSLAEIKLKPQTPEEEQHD
Description: S. aureus and E. coli Uridine-diphosphate-N-acetvimuramoyl: L-alanine lipase, MurC
The buffer is prepared from aqueous reagents with the following final concentrations: 83 mM Tris/HCl (pH 8.0), 50 mM MgC12, and 2 mM ATP.
(§3) Preparation of Enzyme Solution:
A 1 mg/mL stock solution of MurC is prepared in a buffer consisting of 20 mM Tris/HCl (pH 8.5) with 2.5 μM BME. The stock solution is further diluted with the buffer to give a final enzyme concentration of 100 μg/mL for the E. coli stock solution and 70 μg/mL for the S. aureus stock solution.
(§4) Preparation of Test Compound Solutions:
(§5) All test solutions are prepared in DMSO as 10 mg/mL, then diluted with 50 mM Tris/HCl (pH 8.5) to 100 μg/mL.
(§6) Preparation of Stop Solution:
The stop solution is prepared by stirring 1 part 4.2% ammonium molydbate in 4N HCl with 2 parts 0.045% malachite green for 30 min.
In this evaluation, the inhibitory activity of a test compound against MurC, the enzyme which catalyzes the third step of bacterial cell wall bioxynthesis is determined. Experiments are performed by adding 2.5 μl buffer, 2.5 μl 0.5M NH4SO2, 5 μl 2 μM L-Ala, 5 μl enzyme solution and 6.5 μl test compound solution to each well in a 96-well microplate. After a pre-incubation period of 10 mins. at 23° C., 3.75 μl of a 0.75 μM solution of UDP-MurNac is added to each well. Following an incubation period of 10 mins. at 37° C., 210 μl stop solution and 50 μl of a 34% w/v sodium citrate solution are added and color is allowed to develop for 10 mins. at 23° C. (Lanzetta et al., Analytical Biochemistry, 1979, 95) Optical density readings are taken at 660 nm using a Molecular Devices Spectra Max 250 with Soft Max software. Controls are performed using the same procedure and omitting the addition of UDP-MurNac.
Using these values the IC50 is determined by linear regression analysis.

[2] = molecular target: E. coli UDP-N-acetylglucosamine enolpyruvoyl transferase, MurA (Escherichia coli, UniProt P0A749); assay: biochemical; conditions: (E) E. coli enzyme
E. coli UDP-N-acetylglucosamine enolpyruvoyl transferase, MurA, sequence (P0A749 whole entry): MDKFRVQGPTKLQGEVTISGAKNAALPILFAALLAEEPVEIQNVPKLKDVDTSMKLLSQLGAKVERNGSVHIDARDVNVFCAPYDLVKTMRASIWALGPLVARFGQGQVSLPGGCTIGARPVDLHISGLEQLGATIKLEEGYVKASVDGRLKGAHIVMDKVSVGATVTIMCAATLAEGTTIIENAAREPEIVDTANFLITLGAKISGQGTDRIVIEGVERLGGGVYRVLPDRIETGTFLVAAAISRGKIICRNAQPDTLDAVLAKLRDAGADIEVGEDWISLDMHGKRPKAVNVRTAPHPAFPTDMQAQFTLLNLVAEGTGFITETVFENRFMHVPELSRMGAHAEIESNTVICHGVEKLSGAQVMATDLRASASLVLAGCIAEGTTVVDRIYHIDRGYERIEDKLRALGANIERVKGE
Description: Evaluation of the Inhibitory Activity of Test Compounds Against Enzymes which Catalyze Bacterial Cell Wall Biosynthesis
S. aureus and E. coli UDP-N-acetylglucosamine enolpyruvoyl transferase, MurA
as §3
The enzyme solution is prepared by admixing the following: 50 mM Tris/HCl pH 8.0, […] 1 M Tris, 5 mM DTT, […] 1 M DTT, 20% Glycerol 4 ml 50% Glycerol, add water to 10 ml.
as §6
A procedure similar to that described by C. […] Experiments are performed by adding a solution of test compound (in a mixture of dimethylsulfoxide and water) and an enzyme solution to a well. After a pre-incubation period of 10 mintues at 37° C., Tris/BME buffer and assay buffer are added. A start point optical density (OD0) reading is taken at 340 nm immediately following the addition of assay buffer. After incubation for 1 hr at 37° C., the stop solution is added and the color is allowed to develop for 30 minutes.

Streptococci = assay: Minimum inhibitory concentration, microdilution broth method, streptococci; format: cell-based; conditions: S. pneumo GC 1894; Mueller-Hinton broth with 5% horse blood, 18-22 hours at 35° C.
Description: as §1, §2

[3] = molecular target: E. coli Enopyruvyl-UPD-N-acetylglucosamine reductase, Mur B (Escherichia coli, UniProt P08373); assay: biochemical; conditions: (E) E. coli enzyme; for IC50: read-out: MurB IC50 (converted)
E. coli Enopyruvyl-UPD-N-acetylglucosamine reductase, Mur B, sequence (P08373 whole entry): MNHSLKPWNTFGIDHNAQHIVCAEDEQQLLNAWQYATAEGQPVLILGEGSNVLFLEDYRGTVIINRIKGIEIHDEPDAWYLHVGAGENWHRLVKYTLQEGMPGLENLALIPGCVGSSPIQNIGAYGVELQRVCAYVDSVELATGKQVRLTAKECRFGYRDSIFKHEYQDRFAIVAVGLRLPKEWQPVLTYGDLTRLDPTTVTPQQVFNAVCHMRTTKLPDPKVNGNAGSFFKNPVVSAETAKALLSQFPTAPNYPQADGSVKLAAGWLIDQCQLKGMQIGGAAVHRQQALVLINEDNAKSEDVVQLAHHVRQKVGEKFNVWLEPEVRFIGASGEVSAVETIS
Description: S. aureus and E. coli Enopyruvyl-UPD-N-acetylglucosamine reductase, Mur B
Preparation of Tris/BME buffer:
Dilute 17.5 uL of aqueous 5 mM BME (2-mercaptoethanol) to 50 mL with 50 mM Tris/HCl (pH 8.0).
as §3
Dilute aqueous MurB stock solution (0.94 mg/mL) with 200 parts 50 mM Tris/2-BME buffer.
Synthesis of Substrate for MurB (MurA Product EP-UDP-GluNAc):
A mixture of 13 mg UDP-N-acetylglucosamine and 5.5 mg phosphoenolpyruvate are dissolved in 10 mL Tris/BME buffer forming 2 mM concentrations of each reagent in solution.
Preparation of Assay Buffer:
The assay buffer is prepared in water from reagents with the following final concentrations: 100 mM Tris/HCl (pH 8.0), 200 μM NADPH, 100 μM MurB substrate, 10 μM 2-mercaptoethanol, and 10 μM KCl.
Experiments are performed by adding 20 μL of a solution of test compound in a mixture of dimethylsulfoxide and water and 30 μL of enzyme solution to a well. After a pre-incubation period of 20 mins. at 23° C., 50 μL of Tris/BME buffer and 100 μL of assay buffer are added. […] Controls are performed using the same procedure and employing 20 μL of a blank dimethylsulfonide and solvent mixture in place of the test compound solution.
Using these values, the IC50 for each test compound is determined by linear regression analysis.

[4] = molecular target: E. coli Uridine-diphosphate-N-acetylmuramoyl-L-alanine: D-glutamate liease, MurD (Escherichia coli, UniProt P14900); assay: biochemical; conditions: (E) E. coli enzyme
E. coli Uridine-diphosphate-N-acetylmuramoyl-L-alanine: D-glutamate liease, MurD, sequence (P14900 whole entry): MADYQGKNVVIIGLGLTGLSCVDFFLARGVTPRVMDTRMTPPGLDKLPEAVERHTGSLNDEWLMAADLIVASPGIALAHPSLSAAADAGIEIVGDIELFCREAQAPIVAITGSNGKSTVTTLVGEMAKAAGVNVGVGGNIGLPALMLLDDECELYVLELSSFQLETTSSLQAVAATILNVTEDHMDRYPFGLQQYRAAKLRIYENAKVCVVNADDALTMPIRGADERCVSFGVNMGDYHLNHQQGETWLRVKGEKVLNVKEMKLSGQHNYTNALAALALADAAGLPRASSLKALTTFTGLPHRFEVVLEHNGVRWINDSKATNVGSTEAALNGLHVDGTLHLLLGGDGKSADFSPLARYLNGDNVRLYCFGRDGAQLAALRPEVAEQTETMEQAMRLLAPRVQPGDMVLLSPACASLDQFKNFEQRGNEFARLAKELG
Description: S. aureus and E. coli Uridine-diphosphate-N-acetylmuramoyl-L-alanine: D-glutamate liease, MurD
The buffer is prepared from aqueous reagents with the following final concentrations: 83 mM Tris/HCl (pH 8.0), 50 mM MgCl2, and 2 mM ATP.
as §3, §4, §5, §6
In this evaluation, the inhibitory activity of a test compound against MurD, the enzyme which catalyzes the fourth step of bacterial cell wall biosynthesis is determined.

[5] = E. faecalis GC 2242, read-out: MIC E. faecalis GC 2242
[6] = E. faecalis GC 4555, read-out: MIC E. faecalis GC 4555
[7] = S. aureus GC 1131, read-out: MIC S. aureus GC 1131
[8] = S. aureus GC 4543, read-out: MIC S. aureus GC 4543
[9] = (E) E. coli enzyme, read-out: MurC IC50 (converted)

Row | Compound | MIC (enterococci; [5]) [µg/mL] | MIC (enterococci; [6]) [µg/mL] | MIC (staphylococci; [7]) [µg/mL] | MIC (staphylococci; [8]) [µg/mL] | MurC IC50 ([1]; (E) E. coli enzyme) | MurA IC50 [2] | MIC (Streptococci) [µg/mL] | IC50 ([1]; MurC IC50, (E) E. coli enzyme) [µM] | IC50 [3] [µM] | IC50 [2] [µM] | IC50 [4] [µM] | IC50 [1, 9] [µM] | MurB IC50 [3] | MurD IC50 [4]
1 | O=C1O/C(=C\c2ccc(-c3ccccc3)cc2)C(O)=C1c1cccc2ccccc12 [Example 50] | 8 (≈ 20.5 µM) | 32 (≈ 82 µM) | 8 (≈ 20.5 µM) | 4 (≈ 10.2 µM) | 9 (E) μg/mL | 16 (E) μg/mL | 4 (≈ 10.2 µM) | – | – | – | – | – | – | –
2 | O=C1O/C(=C\c2ccccc2C(F)(F)F)C(O)=C1c1ccc(-c2ccccc2)cc1 [Example 99, 3-[1.1′-Biphenyl]-4-yl-4-hydroxy-5-{(Z)-[2-(trifluoromethyl)benzylidene]}-5H-furan-2-one] | 4 (≈ 9.79 µM) | 16 (≈ 39.2 µM) | 4 (≈ 9.79 µM) | 2 (≈ 4.9 µM) | – | – | 0.25 (≈ 0.612 µM) | 9.79 | 14.7 | 9.79 | > 61.2 | – | – | –
3 | O=C1O/C(=C\c2cc(F)cc(C(F)(F)F)c2)C(O)=C1c1ccc(-c2ccccc2)c(F)c1 [Example 110] | 1 (≈ 2.25 µM) | 4 (≈ 9 µM) | 2 (≈ 4.5 µM) | 2 (≈ 4.5 µM) | – | – | 0.25 (≈ 0.563 µM) | – | 11.3 | 15.8 | 42.8 | 20.3 | – | –
4 | CCCc1ccc(-c2ccc(C3=C(O)/C(=C/c4cc(F)cc(C(F)(F)F)c4)OC3=O)cc2)cc1 [Example 111] | 1 (≈ 2.13 µM) | 16 (≈ 34.2 µM) | 32 (≈ 68.3 µM) | 16 (≈ 34.2 µM) | – | – | 0.25 (≈ 0.534 µM) | – | 23.5 | > 53.4 | > 53.4 | > 53.4 | – | –
5 | O=C1O/C(=C\c2cccc(C(F)(F)F)c2Cl)C(O)=C1c1ccc(-c2ccccc2)cc1 [Example 113] | 1 (≈ 2.26 µM) | 4 (≈ 9.03 µM) | 1 (≈ 2.26 µM) | 2 (≈ 4.52 µM) | – | – | 0.25 (≈ 0.565 µM) | – | 6.77 | 9.03 | > 56.5 | > 56.5 | – | –
6 | O=C1O/C(=C\c2cccc(C(F)(F)F)c2Cl)C(O)=C1c1ccc(-c2ccccc2)c(F)c1 [Example 114] | 0.5 (≈ 1.09 µM) | 2 (≈ 4.34 µM) | 1 (≈ 2.17 µM) | 1 (≈ 2.17 µM) | 10 (E) μg/mL | 1 (E) μg/mL | 0.25 (≈ 0.543 µM) | – | – | – | – | – | 1 (E) μg/mL | 16 (E) μg/mL
7 | CCCc1ccc(-c2ccc(C3=C(O)/C(=C/c4cccc(C(F)(F)F)c4Cl)OC3=O)cc2)cc1 [Example 115] | 0.25 (≈ 0.516 µM) | 2 (≈ 4.12 µM) | 4 (≈ 8.25 µM) | 4 (≈ 8.25 µM) | – | – | 0.25 (≈ 0.516 µM) | – | 10.3 | 10.3 | > 51.6 | > 51.6 | – | –
8 | CC(C)(C)c1ccc(-c2ccc(C3=C(O)/C(=C/c4cccc(C(F)(F)F)c4Cl)OC3=O)cc2)cc1 [Example 116] | 4 (≈ 8.02 µM) | 4 (≈ 8.02 µM) | 8 (≈ 16 µM) | 8 (≈ 16 µM) | – | – | < 0.125 | – | 8.02 | 6.01 | > 50.1 | > 50.1 | – | –
9 | CCOc1ccc(-c2ccc(C3=C(O)/C(=C/c4cccc(C(F)(F)F)c4Cl)OC3=O)cc2)cc1 [Example 117] | 8 (≈ 16.4 µM) | 32 (≈ 65.7 µM) | 64 (≈ 131 µM) | 32 (≈ 65.7 µM) | – | – | 0.5 (≈ 1.03 µM) | – | 14.4 | 20.5 | > 51.3 | > 51.3 | – | –
10 | O=C1O/C(=C\c2cc(C(F)(F)F)ccc2F)C(O)=C1c1ccc(-c2ccccc2)cc1 [Example 118] | 16 (≈ 37.5 µM) | 32 (≈ 75.1 µM) | 16 (≈ 37.5 µM) | 16 (≈ 37.5 µM) | – | – | 4 (≈ 9.38 µM) | – | 42.2 | 35.2 | > 58.6 | 44.6 | – | –
11 | O=C1O/C(=C\c2cc(C(F)(F)F)ccc2F)C(O)=C1c1ccc(-c2ccccc2)c(F)c1 [Example 119] | 2 (≈ 4.5 µM) | 2 (≈ 4.5 µM) | 2 (≈ 4.5 µM) | 2 (≈ 4.5 µM) | 2 (E) μg/mL | 1 (E) μg/mL | 0.5 (≈ 1.13 µM) | – | – | – | – | – | 1 (E) μg/mL | 6 (E) μg/mL
12 | CC(C)(C)c1ccc(-c2ccc(C3=C(O)/C(=C/c4cc(C(F)(F)F)ccc4F)OC3=O)cc2)cc1 [Example 120] | 4 (≈ 8.29 µM) | 8 (≈ 16.6 µM) | 16 (≈ 33.2 µM) | 16 (≈ 33.2 µM) | – | – | 0.5 (≈ 1.04 µM) | – | 10.4 | 8.29 | 33.2 | 47.7 | – | –
13 | O=C1O/C(=C\c2cc(C(F)(F)F)ccc2F)C(O)=C1c1cccc(-c2ccccc2)c1 [Example 121] | 8 (≈ 18.8 µM) | 16 (≈ 37.5 µM) | 4 (≈ 9.38 µM) | 2 (≈ 4.69 µM) | – | – | 0.5 (≈ 1.17 µM) | – | 16.4 | 21.1 | – | 21.1 | – | –
14 | CCOc1ccc(-c2ccc(C3=C(O)/C(=C/c4cc(C(F)(F)F)ccc4F)OC3=O)cc2)cc1 [Example 122] | 8 (≈ 17 µM) | 32 (≈ 68 µM) | 16 (≈ 34 µM) | 16 (≈ 34 µM) | – | – | 1 (≈ 2.13 µM) | – | 29.8 | 34 | > 53.1 | > 53.1 | – | –
15 | CC(C)(C)c1ccc(-c2ccc(C3=C(O)/C(=C/c4ccc(Cl)c(C(F)(F)F)c4)OC3=O)cc2)cc1 [Example 123] | 4 (≈ 8.02 µM) | 8 (≈ 16 µM) | 16 (≈ 32.1 µM) | 16 (≈ 32.1 µM) | – | – | 0.5 (≈ 1 µM) | – | 6.01 | 42.1 | > 50.1 | > 50.1 | – | –
16 | O=C1O/C(=C\c2cccc(C(F)(F)F)c2)C(O)=C1c1ccc(-c2ccccc2)cc1 [Example 130] | 8 (≈ 19.6 µM) | 4 (≈ 9.79 µM) | 4 (≈ 9.79 µM) | 4 (≈ 9.79 µM) | 8 (E) μg/mL | 17 (E) μg/mL | 0.5 (≈ 1.22 µM) | – | 22 | – | – | – | – | –
